Experimental findings from article PMC6254361, “The properties of Msh2–Msh6 ATP binding mutants suggest a signal amplification mechanism in DNA mismatch repair” (The Journal of Biological Chemistry, 2018) are described below.

Molecules are shown by their SMILES.

The assay has as its target T1, Msh2–Msh6 (Saccharomyces cerevisiae, UniProt P25847+Q03834, P25847:K694A).
T1 sequence (P25847 1-964 K694A): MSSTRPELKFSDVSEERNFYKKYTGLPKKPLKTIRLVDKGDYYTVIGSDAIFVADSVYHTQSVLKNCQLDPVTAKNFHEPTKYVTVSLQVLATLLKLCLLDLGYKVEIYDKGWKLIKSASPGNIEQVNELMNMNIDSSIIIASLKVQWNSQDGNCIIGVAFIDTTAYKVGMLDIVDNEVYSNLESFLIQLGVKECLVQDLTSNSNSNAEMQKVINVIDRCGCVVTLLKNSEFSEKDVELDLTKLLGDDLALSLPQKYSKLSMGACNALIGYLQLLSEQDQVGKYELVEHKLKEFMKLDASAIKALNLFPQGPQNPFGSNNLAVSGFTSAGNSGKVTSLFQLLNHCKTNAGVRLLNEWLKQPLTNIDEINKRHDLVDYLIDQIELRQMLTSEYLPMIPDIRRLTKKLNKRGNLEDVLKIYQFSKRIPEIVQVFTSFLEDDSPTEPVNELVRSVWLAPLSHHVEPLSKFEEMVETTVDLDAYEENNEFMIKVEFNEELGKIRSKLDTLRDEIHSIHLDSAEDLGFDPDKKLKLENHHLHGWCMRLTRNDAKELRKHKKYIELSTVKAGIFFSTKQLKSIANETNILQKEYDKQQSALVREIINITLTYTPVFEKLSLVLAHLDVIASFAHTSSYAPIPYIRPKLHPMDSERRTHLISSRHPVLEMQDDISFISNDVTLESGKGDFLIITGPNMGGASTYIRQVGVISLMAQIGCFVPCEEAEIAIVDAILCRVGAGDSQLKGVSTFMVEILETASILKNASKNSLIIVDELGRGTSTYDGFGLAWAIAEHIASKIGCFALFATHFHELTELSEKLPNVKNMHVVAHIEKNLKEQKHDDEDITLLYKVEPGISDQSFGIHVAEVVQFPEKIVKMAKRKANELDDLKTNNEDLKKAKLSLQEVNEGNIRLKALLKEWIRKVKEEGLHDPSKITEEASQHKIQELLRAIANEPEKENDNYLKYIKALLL
T1 sequence (Q03834 1-1242): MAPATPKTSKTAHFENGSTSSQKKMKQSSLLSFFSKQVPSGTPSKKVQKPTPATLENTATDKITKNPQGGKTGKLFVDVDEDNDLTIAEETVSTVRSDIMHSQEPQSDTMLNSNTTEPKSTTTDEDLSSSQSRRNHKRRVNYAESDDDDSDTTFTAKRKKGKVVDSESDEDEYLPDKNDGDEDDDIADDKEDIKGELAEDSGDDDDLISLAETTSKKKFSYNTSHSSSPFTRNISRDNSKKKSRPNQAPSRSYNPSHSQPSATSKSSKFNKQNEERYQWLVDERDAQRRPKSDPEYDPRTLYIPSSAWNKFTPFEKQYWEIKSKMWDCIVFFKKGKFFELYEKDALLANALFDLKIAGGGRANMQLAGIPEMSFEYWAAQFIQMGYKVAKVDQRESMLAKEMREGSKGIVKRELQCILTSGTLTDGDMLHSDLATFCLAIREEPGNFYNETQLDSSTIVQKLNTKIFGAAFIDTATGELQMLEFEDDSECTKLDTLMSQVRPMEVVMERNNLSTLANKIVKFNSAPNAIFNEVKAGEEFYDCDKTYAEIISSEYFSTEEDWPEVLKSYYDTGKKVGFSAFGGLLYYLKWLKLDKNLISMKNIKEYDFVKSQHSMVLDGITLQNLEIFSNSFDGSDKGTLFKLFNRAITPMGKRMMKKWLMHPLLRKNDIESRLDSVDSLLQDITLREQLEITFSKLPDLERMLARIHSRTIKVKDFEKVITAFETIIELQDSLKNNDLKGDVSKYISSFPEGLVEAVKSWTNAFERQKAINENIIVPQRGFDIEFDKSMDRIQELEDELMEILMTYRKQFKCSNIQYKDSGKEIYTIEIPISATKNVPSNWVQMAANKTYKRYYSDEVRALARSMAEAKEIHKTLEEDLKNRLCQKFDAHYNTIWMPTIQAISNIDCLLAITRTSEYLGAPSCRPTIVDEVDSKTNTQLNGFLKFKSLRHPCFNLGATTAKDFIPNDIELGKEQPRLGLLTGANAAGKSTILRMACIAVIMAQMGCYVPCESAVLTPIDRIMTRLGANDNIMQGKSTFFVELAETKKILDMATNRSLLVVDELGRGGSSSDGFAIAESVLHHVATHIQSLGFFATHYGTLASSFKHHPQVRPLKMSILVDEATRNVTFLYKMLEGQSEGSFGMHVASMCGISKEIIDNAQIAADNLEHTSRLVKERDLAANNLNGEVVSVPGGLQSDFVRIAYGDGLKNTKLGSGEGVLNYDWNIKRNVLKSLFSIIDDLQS
Description: UV cross-linking of [γ-32P]ATP, SDS-PAGE, phosphorimaging. The format is binding. To be noted: labelled compound; no Mg2+, EDTA, pH 8, on ice; Msh2 site at 60 μM ATP, Msh6 site at 1 μM ATP.

For the compound `Nc1ncnc2c1ncn2[C@@H]1O[C@H](COP(=O)(O)OP(=O)(O)OP(=O)(O)O)[C@@H](O)[C@H]1O` [ATP], the “relative ATP binding” value was “Msh2(K694A)–Msh6 and Msh2(K694R)–Msh6 mutant complexes were defective for ATP binding to both”.
